The source of these data is patent US6359138B1, “4-hydroxy-piperidine derivatives” (Hoffmann-La Roche Inc., priority 1996, dated 2002).

Counter-ions that a name gives are not always drawn. Marks after values point to notes of the source that are not given here.

In series [1] the target is T1, NR1C + NR2A NMDA receptor (Rattus norvegicus, UniProt P35439+Q00959).
T1 construct: expressed in transfected cells; host or cells: Xenopus laevis oocytes (nuclear injection of pBC/CMV plasmids)
Kind of series: Electrophysiology on recombinant NMDA receptors, NR1C + NR2A in Xenopus oocytes. Format: cell-based. As to conditions: 10 μM compound; Xenopus laevis oocytes, voltage clamp −80 mV, 2.7 μM Glu plus 0.9 μM Gly; mean of 4-6 oocytes. From the text: (§1) Electrophysiology on Recombinant NMDA Receptors
(§2) cDNA clones coding for the subunits NR1C and NR2A of the NMDA receptor (see Hollmann and Heinemann, 1994, Annu. Rev. Neurosci. 17:31 for nomenclature of NMDA receptor subunits) were isolated from a rat brain λgt11 cDNA library as published elsewhere (Sigel et al., 1994, J. Biol. Chem. 269:8204). The clone for the subunit NR2B of the rat brain NMDA receptor was obtained from S. Nakanishi (Kyoto, Japan). The cDNAs encoding rat NR1C, NR2A and NR2B were subcloned into the expression vector pBC/CMV (Bertocci et al., 1991, Proc. Natl. Acad. Sci. U.S.A. 88:1416), placing transcription of the cDNA under control of the human cytomegalovirus promoter. CsCl-purified expression plasmids were mixed in a 1:3 ratio of NR1C:NR2A or NR1C:NR2B in injection buffer (88 mM NaCl, 1 mM KCl, 15 mM HEPES, at pH 7.0). Oocytes of South African frogs (Xenopus laevis) were used for expressing either a combination of the NR1C and NR2A subunits or the NR1C and NR2B subunits. 12 to 120 pg of a 1:3 (NR1C:NR2B) mixture of the respective cDNA species were injected into the nucleus of every oocyte. On the following two days the ion current through the NMDA receptor channels was measured in voltage clamp experiments for the methods of cDNA expression in oocytes and voltage-clamping (see, e.g., Bertrand et al., 1991, Methods in Neurosciences 4:174). The membrane potential was clamped to −80 mV and the receptors were activated by applying a modified Ringer,s solution containing the NMDA-receptor agonists L-glutamate (Glu) and glycine (Gly). Different agonist concentrations were chosen for either subunit combination to account for the different agonist sensitivities of the two types of receptors (2.7 μM Glu plus 0.9 μM Gly for NR1C+NR2A and 1.3 μM Glu plus 0.07 μM Gly for NR1C+NR2B). The agonists were applied for 15 s intervals once every 2.5 min by rapid superfusion of the oocyte with agonist containing solution and the amplitude of the agonist-evoked current was measured immediately before the end of each application. After a series of initial control applications the antagonist to be tested was added to both, the basal Ringer,s and the agonist containing solution. The antagonist concentration applied to oocytes expressing the NR2A subunit was 10 μmol/l, whereas 0.1 μtmol/ were applied to the NR2B expressing oocytes. Four to six oocytes were tested for every compound and NMDA receptor subtype. Oocytes were exposed to the compounds for 5 to 30 min depending on the time needed for reaching an equilibrium block of the NMDA receptor current. For every oocyte the decrease of the current amplitude was expressed as a percentage of the control current measured before application of the compound. Figures in the table are arithmetic mean values of these percentage values.

Series [2] concerns the target T2, NR1C + NR2B NMDA receptor (Rattus norvegicus, UniProt P35439+Q00960).
T2 construct: expressed in transfected cells; host or cells: Xenopus laevis oocytes (nuclear injection of pBC/CMV plasmids)
Kind of series: Electrophysiology on recombinant NMDA receptors, NR1C + NR2B in Xenopus oocytes. To be noted: 0.1 μM compound; Xenopus laevis oocytes, voltage clamp −80 mV, 1.3 μM Glu plus 0.07 μM Gly; mean of 4-6 oocytes. Format: cell-based.
Text: as §1
as §2, with “Figures in the table are arithmetic mean values of these percentage values.” left out

Series [3] deals with T3, NMDA receptor (3H-Ro 25-6981 binding, rat brain membranes) (Rattus norvegicus, UniProt P35439+Q00960).
T3 construct: Membranes were prepared by homogenization of the whole brain minus cerebellum and medulla oblongata; from tissue; host or cells: rat whole brain minus cerebellum and medulla oblongata, membranes
Kind of series: 3H-Ro 25-6981 binding. To be noted: 5 nM 3H-Ro 25-6981, 2 hours at 4° C. As to the method:
3H-Ro 25-6981 Binding (Ro 25-6981 is [R-(R*,S*)]-a-(4-Hydroxy-phenyl)-b-methyl-4-(phenyl-methyl)-1-piperidine Propanol)
Male Füillinsdorf albino rats weighing between 150-200 g were used. Membranes were prepared by homogenization of the whole brain minus cerebellum and medulla oblongata with a Polytron (10.000 rpm, 30 seconds), in 25 volumes of a cold Tris-HCl 50 mM, EDTA 10 mM, pH 7.1 buffer. The homogenate was centrifuged at 48.000 g for 10 minutes at 4° C. The pellet was resuspended using the Polytron in the same volume of buffer and the homogenate was incubated at 37° C. for 10 minutes. After centrifugation the pellet was homogenized in the same buffer and frozen at −80° C. for at least 16 hours but not more than 10 days. For the binding assay the homogenate was thawed at 37° C., centrifuged and the pellet was washed three times as above in a Tris-HCl 5 mM, pH 7.4 cold buffer. The final pellet was resuspended in the same buffer and used at a final concentration of 200 μg of protein/ml. 3H-Ro 25-6981 binding experiments were performed using a Tris-HCl 50 mM, pH 7.4 buffer. For displacement experiments 5 nM of 3H-Ro 25-6981 were used and non specific binding was measured using 10 μM of tetrahydroisoquinoline and usually it accounts for 10% of the total. The incubation time was 2 hours at 4° C. and the assay was stopped by filtration on Whatmann GF/B glass fiber filters (Unifilter-96, Packard, Zütrich, Switzerland). The filters were washed 5 times with cold buffer. The radioactivity on the filter was counted on a Packard Top-count microplate scintillation counter after addition of […] of microscint 40 (Canberra Packard S. A., Zürich, Switzerland).
The effects of compounds were measured using a minimum of 8 concentrations and repeated at least once. The pooled normalized values were analyzed using a non-linear regression calculation program which provide IC50 with their relative upper and lower 95% confidence limits (RS1, BBN, USA).

The target in series [4] is 3H-Prazosine binding (rat brain membranes). Kind of series: 3H-Prazosine binding. As to conditions: 0.2 nM 3H-Prazosine, 30 minutes at room temperature. As for the experimental part:
Male Füllinsdorf albino rats weighing between 150-200 g were used. Membranes were prepared by homogenization of the whole brain minus cerebellum and medulla oblongata with a Plytron (10.000 rpm, 30 seconds), in 25 volumes of a cold Tris-HCl 50 mM, EDTA 10 mM, pH 7.1 buffer. The homogenate was centrifuged at 48.000 g for 10 minutes at 4° C. The pellet was resuspended using the Polytron in the same volume of buffer and the homogenate was incubated at 37° C. for 10 minutes. After centrifugation the pellet was homogenized in the same buffer and frozen at −80° C. for at least 16 hours but not more than 10 days. For the binding assay the homogenate was thawed at 37° C., centrifuged and the pellet was washed three times as above in a Tris-HCl 5 mM, pH 7.4 cold buffer. The final pellet was resuspended in the same buffer and used at a final concentration of 200 μg of protein/ml.
3H-Prazosine binding experiments were performed using a Tris-HCl 50 mM, pH 7.4 buffer. For displacement experiments 0.2 nM of 3H-Prazosine were used and non specific binding was measured using 100 μM of Chlorpromazine. […] The radioactivity on the filter was counted on a Packard Top-count microplate scintillation counter after addition of […] of microscint 40 (Canberra Packard S. A., Zürich, Switzerland). The effects of compounds were measured using a minimum of 8 concentrations and repeated at least once. […]

T3 sequence (Q00960 27-1482, other chains not shown): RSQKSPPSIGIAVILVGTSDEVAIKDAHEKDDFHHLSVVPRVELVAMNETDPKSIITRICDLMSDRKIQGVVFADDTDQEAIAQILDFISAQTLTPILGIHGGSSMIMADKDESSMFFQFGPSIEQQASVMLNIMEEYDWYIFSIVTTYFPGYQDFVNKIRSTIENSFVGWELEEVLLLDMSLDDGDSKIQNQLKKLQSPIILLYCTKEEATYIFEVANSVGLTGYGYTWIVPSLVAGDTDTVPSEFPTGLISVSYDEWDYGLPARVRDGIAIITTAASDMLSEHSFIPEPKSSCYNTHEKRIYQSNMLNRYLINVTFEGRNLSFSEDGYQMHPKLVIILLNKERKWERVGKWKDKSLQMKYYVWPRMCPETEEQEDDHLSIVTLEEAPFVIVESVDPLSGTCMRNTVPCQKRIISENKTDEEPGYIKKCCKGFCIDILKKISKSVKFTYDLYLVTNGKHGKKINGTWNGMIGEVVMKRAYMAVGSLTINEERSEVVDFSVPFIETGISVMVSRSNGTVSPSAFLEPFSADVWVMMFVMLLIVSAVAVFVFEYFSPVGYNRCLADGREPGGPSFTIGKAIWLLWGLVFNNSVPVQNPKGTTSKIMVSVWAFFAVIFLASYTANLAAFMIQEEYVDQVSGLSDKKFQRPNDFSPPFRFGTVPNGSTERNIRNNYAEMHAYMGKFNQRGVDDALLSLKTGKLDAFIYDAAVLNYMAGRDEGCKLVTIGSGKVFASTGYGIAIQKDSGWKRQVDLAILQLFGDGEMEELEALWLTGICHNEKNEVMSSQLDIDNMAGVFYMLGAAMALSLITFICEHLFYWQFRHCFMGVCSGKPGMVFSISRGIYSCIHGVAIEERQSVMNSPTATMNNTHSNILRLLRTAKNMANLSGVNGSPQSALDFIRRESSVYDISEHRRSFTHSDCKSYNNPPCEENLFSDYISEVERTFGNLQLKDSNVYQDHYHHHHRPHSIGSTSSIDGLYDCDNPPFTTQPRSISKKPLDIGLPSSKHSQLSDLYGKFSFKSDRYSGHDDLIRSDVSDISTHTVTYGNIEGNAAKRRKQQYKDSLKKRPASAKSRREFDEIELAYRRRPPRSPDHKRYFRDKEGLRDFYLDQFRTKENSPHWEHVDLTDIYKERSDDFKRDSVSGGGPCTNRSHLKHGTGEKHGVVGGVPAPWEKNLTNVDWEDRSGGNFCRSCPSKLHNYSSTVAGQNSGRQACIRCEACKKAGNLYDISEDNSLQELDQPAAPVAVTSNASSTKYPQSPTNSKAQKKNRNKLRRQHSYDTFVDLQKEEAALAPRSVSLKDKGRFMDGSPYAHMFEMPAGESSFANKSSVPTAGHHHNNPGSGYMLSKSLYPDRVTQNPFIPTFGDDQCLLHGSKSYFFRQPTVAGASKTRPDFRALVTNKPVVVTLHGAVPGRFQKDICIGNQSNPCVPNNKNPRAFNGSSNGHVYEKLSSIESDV
T2 sequence (Q00960 27-1482, other chains not shown): as above
T1 sequence (Q00959 23-1464, other chains not shown): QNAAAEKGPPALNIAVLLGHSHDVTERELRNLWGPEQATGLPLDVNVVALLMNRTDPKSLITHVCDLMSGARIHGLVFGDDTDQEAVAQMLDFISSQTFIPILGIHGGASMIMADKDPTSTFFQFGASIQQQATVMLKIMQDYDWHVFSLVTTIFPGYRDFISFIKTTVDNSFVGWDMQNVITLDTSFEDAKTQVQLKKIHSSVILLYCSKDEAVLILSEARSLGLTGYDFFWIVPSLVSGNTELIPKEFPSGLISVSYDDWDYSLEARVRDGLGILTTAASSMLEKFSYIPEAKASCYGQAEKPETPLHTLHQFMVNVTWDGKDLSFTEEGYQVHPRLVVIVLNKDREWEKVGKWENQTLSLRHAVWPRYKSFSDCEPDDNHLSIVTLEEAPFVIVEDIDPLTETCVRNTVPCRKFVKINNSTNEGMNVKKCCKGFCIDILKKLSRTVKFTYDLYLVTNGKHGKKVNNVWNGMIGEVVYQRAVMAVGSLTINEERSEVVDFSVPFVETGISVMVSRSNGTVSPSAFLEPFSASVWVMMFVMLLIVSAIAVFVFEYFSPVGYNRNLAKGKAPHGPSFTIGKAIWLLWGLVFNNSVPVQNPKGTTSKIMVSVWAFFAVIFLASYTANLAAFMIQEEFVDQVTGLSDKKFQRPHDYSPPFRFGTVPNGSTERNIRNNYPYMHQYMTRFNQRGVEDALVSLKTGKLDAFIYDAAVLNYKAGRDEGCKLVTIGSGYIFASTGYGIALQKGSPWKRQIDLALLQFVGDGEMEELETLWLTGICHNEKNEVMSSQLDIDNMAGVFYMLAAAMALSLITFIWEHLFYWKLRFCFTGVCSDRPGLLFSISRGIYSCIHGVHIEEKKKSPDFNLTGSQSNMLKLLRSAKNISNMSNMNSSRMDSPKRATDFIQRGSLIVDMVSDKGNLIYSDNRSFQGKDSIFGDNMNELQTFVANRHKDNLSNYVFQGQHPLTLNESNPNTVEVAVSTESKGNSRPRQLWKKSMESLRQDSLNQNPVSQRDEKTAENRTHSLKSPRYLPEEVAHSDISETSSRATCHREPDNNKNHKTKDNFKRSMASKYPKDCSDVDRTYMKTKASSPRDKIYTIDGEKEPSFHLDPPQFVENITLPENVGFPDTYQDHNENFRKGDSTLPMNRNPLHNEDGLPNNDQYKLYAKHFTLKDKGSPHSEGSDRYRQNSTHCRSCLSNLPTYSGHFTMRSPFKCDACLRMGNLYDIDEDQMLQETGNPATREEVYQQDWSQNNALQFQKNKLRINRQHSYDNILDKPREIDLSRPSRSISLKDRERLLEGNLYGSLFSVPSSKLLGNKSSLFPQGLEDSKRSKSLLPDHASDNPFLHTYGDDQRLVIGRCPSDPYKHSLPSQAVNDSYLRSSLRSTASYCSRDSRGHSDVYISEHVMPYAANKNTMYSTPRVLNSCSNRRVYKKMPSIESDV

As for `Cc1ccc(CC2(O)CCN(Cc3cc4ccc(O)cc4o3)CC2)cc1.Cl`, the melting point was determined as 214 °C.
`Cc1ccc(CC2(O)CCN(CC3Cc4ccc(O)cc4C3)CC2)cc1.Cl` (racemic) gave a melting point of 88 to 90 °C.
`Cc1ccc(CC2(O)CCN(CC3Cc4ccc(O)cc4O3)CC2)cc1.Cl` (racemic): the melting point is 203 to 205 °C.
For `CC(=O)Nc1ccc2c(c1)CCC(CN1CCC(O)(Cc3ccccc3)CC1)C2=O.Cl` (racemic), the melting point was 123 to 126 °C.
Regarding `CCc1ccc(CC2(O)CCN(CC3Cc4cc(O)ccc4O3)CC2)cc1.Cl` (racemic) [Example 7, (RS)-4-(4-ethyl-benzyl)-1-(5-hydroxy-2,3-dihydro-benzofuran-2-ylmethyl)-piperidin-4-ol hydrochloride], the “Electrophysiology NR1C + NR2A % block by 10 μM” value in series [1] stood at 12%. Also, in series [2], the “Electrophysiology NR1C + NR2B % block by 0.1 μM” value amounted to 89%.
On to `Cc1ccc(CC2(O)CCN(CC3Cc4cc(O)ccc4N3)CC2)cc1` (racemic) [Example 21, (RS)-2-[4-Hydroxy-4-(4-methyl-benzyl)-piperidin-1-ylmethyl]-2,3-dihydro-1H-indol-5-ol], for which the melting point was 90 to 94 °C.
Turning to `CS(=O)(=O)Nc1ccc2c(c1)CC(CN1CCC(O)(Cc3ccc(Cl)cc3)CC1)O2` (racemic) [Example 22, Hydrochloride], in series [3], the IC50 was determined as 40 nM.
For `Cc1ccc(CC2(O)CCN(C[C@H]3CCc4cc(O)ccc4[C@@H]3O)CC2)cc1` (racemic) [Example 27, (1RS, 2RS)-1-(1,6-Dihydroxy-1,2,3,4-tetrahydro-naphthalen-2-ylmethyl)-4-(4-methyl-benzyl)-piperidin-4-ol fumarate salt], the half-maximal inhibitory concentration (IC50) in series [3] came to 26 nM; in series [4], 6000 nM.
In the case of `Oc1ccc2c(c1)CC[C@H](CN1CCC(O)(Cc3ccccc3)CC1)[C@H]2O` (racemic) [Example 29, (1RS,2RS)-2-(4-benzyl-4-hydroxy-piperidin-1-yl-methyl)-6-hydroxy-1,2,3,4-tetrahydro-naphthalen-1-ol], the melting point fell in the range of 94 to 98 °C.
On to `Cc1ccc(CC2(O)CCN(CC3=Cc4ccc(O)cc4CC3)CC2)cc1` [Example 1, 1-(6-Hydroxy-3,4-dihydro-naphthalene-2-ylmethyl)-4-(4-methyl-benzyl)-piperidine-4-ol], for which the concentration for half-maximal inhibition (IC50) in series [3] came out at 40 nM. Moreover, in series [1], the “Electrophysiology NR1C + NR2A % block by 10 μM” value is 65* %. Also, in series [2], the “Electrophysiology NR1C + NR2B % block by 0.1 μM” value came out at 72%.
As to `Cc1ccc(CC2(O)CCN(C[C@@H]3Cc4cc(O)ccc4O3)CC2)cc1.Cl` [Example 13, (S)-1-(5-Hydroxy-2,3-dihydro-benzofuran-2-ylmethyl)-4-(4-methyl-benzyl)-piperidin-4-ol hydrochloride], in series [1], the “Electrophysiology NR1C + NR2A % block by 10 μM” value came to 8%. Moreover, the “Electrophysiology NR1C + NR2B % block by 0.1 μM” value in series [2] stood at 93%.
With `Cl.Oc1ccc2c(c1)C[C@@H](CN1CCC(O)(Cc3ccc(Cl)cc3)CC1)O2` [Example 14, (S)-1-(5-Hydroxy-2,3-dihydro-benzofuran-2-ylmethyl)-4-(4-chloro-benzyl)-piperidin-4-ol hydrochloride], in series [1], the “Electrophysiology NR1C + NR2A % block by 10 μM” value is 9%. In addition, in series [2], the “Electrophysiology NR1C + NR2B % block by 0.1 μM” value came to 90%.
On to `Cc1ccc(CC2(O)CCN(CC3Cc4cc(O)ccc4C3O)CC2)cc1` (stereo not drawn) [Example 16, (1RS,2RS) and (1RS, 2SR)-2-[4-Hydroxy-4-(4-methyl-benzyl)-piperidine-1-ylmethyl]-indan-1,5-diol Fumarate Salt], for which the “Electrophysiology NR1C + NR2A % block by 10 μM” value in series [1] is reported as 6%.
On to `Cc1ccc(CC2(O)CCN(CC3=Cc4ccc(O)cc4C3)CC2)cc1` [Example 20, 1-(6-Hydroxy-1H-inden-2-ylmethyl)-4-(4-methyl-benzyl)-piperidin-4-ol], for which the melting point was in the range of 154 to 157 °C.
